{"source": "paper PMC5217372", "about": "“Activation of SsoPK4, an Archaeal eIF2α Kinase Homolog, by Oxidized CoA” (Proteomes, 2015)", "molecules": {"B1": {"name": "rSsoPK4(284–635) (Saccharolobus solfataricus P2) (protein)", "chain": "MLYSLALLSSRKKELLELACKKGYKKACEQTKPILDMKNWDPKVWVGKEIYNYNIVDIIGVGGTSYILKGEKDGNFYALKIPLINYLNNVMDLVGESSKLIELSNKSPYIVRLYAIYADQLDVKEILGGNPEIYYNKPPMLVIELMKGGSINDVINVKELVKSEYWKKIVFITTARIAEALETIHSEGYVHCDVKPQNVLFNEKLPPNARLAYDNLKNGKIIVKLADLGSAVKAGEKPFSYTPAYVSFDLVKSTAFGGVSPMADIYALGATVYKLLTGVTLNTNVMIEAMDKFEANKDIRYLDNSLYSTRNLDLLRKYVDKNTYLFISKMVDPDPNKRPTSKEIKEFFYFRV", "notes": "residues 284–635 (catalytic and part of central helical repeat domain), N-terminal S-tag, C-terminal 33-residue fusion domain with polyhistidine motif, pET-29b, expressed in E. coli"}}, "key": {"rSsoPK4(284–635) [1]": {"test_system": "rSsoPK4(284–635)", "assay": "Protein kinase activity assay (filter paper method, [γ-32P]ATP, 65 °C) of rSsoPK4(284–635)", "format": "biochemical, Sulfolobus solfataricus", "conditions": "for Vmax in the presence of CoAS-SCoA: CoAS-SCoA 1 mM", "procedure": "(§1) Protein kinase activity was routinely assayed by the filter paper method of Corbin and Reimann as modified by Lower and Kennelly. The final volume of the assays was typically 50 μL. The quantity of rSsoPK4 assayed ranged from 0.1 to 5.0 µg. Both MgCl2 and MnCl2 were included at a final concentration of 5 mM each. The final concentration of [γ-^32P]ATP was 100 μM. The specific activity of the [γ-^32P]ATP generally ranged from 2 to 5 × 10^15 cpm/mol. Phosphoacceptor proteins were generally present at a concentration of 0.5–1.0 µg/µL. The assay mixture was typically incubated for a period of 30 min to one hour at 65 °C in 50 mM MOPS pH 7.0. On occasion, the proteins within the assay mixture were resolved by SDS-PAGE in order to identify the specific polypeptides that were phosphorylated. Radiolabeled species were visualized using an Instant Imager from Packard (Downers Grove, IL, USA)."}, "[2]": {"test_system": "rSsoPK4(284–635) T592D/T606D/S611D", "assay": "Protein kinase activity assay of rSsoPK4(284–635) T592D/T606D/S611D", "format": "biochemical, Sulfolobus solfataricus", "conditions": "MBP as substrate (Figure 9)", "procedure": "Figure 9 CoAS-SCoA activates rSsoPK4(284–635), but not rSsoPK4(284–635) T592D/T606D/S611D, in a concentration-dependent manner. The activity of rSsoPK4(284–635) (OPEN […]) and rSsoPK4(284–635) T592D/T606D/S611D (OPEN CIRCLES) were assayed, in duplicate, in the presence of the indicated concentrations of CoAS-SCoA using MBP as substrate. Shown is a plot of the activity relative to that measured in the absence of CoAS-SCoA, which was normalized as 1.0, plus or minus mean average deviation."}, "[3]": {"test_system": "rSsoPK4(284–635)T606D/S611D", "assay": "Protein kinase activity assay of rSsoPK4(284–635)T606D/S611D", "format": "biochemical, Sulfolobus solfataricus"}, "rSsoPK4(284–635) [4]": {"target": "T1, rSsoPK4(284–635) (Saccharolobus solfataricus, UniProt Q97U41)", "T1 construct": "gene SSO3182; residues 284–635 (catalytic and part of central helical repeat domain), N-terminal S-tag, C-terminal 33-residue fusion domain with polyhistidine motif, pET-29b, expressed in E. coli", "T1 sequence (Q97U41 284-635)": "B1 chain", "assay": "Filter paper [γ-32P]ATP kinase assay with MBP as phosphoacceptor, ATP routinely 100 µM, 5 mM MgCl2 and 5 mM MnCl2, 50 mM MOPS pH 7.0, 65 °C, in the presence of nucleotide effectors.", "format": "biochemical", "procedure": "as §1"}, "[5]": {"substrate": "Nc1ncnc2c1ncn2[C@@H]1O[C@H](COP(=O)(O)OP(=O)(O)OP(=O)(O)O)[C@@H](O)[C@H]1O", "assay": "Filter paper [32P]phosphate incorporation kinase assay with varied [γ-32P]ATP and mixed histones fixed at 70 µM as phosphoacceptor, 5 mM MgCl2 and 5 mM MnCl2, 50 mM MOPS pH 7.0, 65 °C; Lineweaver-Burk plot.", "format": "biochemical", "quoted_text": "Protein kinase activity was routinely assayed by the filter paper method of Corbin and Reimann [18] as modified by Lower and Kennelly [19]. The final volume of the assays was typically 50 μL. The quantity of rSsoPK4 assayed ranged from 0.1 to 5.0 µg. Both MgCl2 and MnCl2 were included at a final concentration of 5 mM each. The final concentration of [γ-^32P]ATP was 100 μM. The specific activity of the [γ-^32P]ATP generally ranged from 2 to 5 × 10^15 cpm/mol. Phosphoacceptor proteins were generally present at a concentration of 0.5–1.0 µg/µL. The assay mixture was typically incubated for a period of 30 min to one hour at 65 °C in 50 mM MOPS pH 7.0. On occasion, the proteins within the assay mixture were resolved by SDS-PAGE in order to identify the specific polypeptides that were phosphorylated. Radiolabeled species were visualized using an Instant Imager from Packard (Downers Grove, IL, USA)."}}}
{"molecule": "CC(C)(COP(=O)(O)OP(=O)(O)OC[C@H]1O[C@@H](n2cnc3c(N)ncnc32)C(O)[C@H]1OP(=O)(O)O)[C@@H](O)C(=O)NCCC(=O)NCCSSCCNC(=O)CCNC(=O)[C@H](O)C(C)(C)COP(=O)(O)OP(=O)(O)OC[C@H]1O[C@@H](n2cnc3c(N)ncnc32)C(O)[C@H]1OP(=O)(O)O", "note": "(stereo partly shown) [CoAS-SCoA, oxidized Coenzyme A]", "values": [{"measurement": "Vmax in the presence of CoAS-SCoA", "setting": "rSsoPK4(284–635) [1]; protein substrate MBP (3.7 without)", "result": 4.8, "unit": "nmol/min/mg"}, {"measurement": "Vmax in the presence of CoAS-SCoA", "setting": "rSsoPK4(284–635) [1]; protein substrate aIF2α (4.2 without)", "result": 2.9, "unit": "nmol/min/mg"}, {"measurement": "effect on protein kinase activity toward MBP", "setting": "rSsoPK4(284–635) [1]; MBP substrate, compounds at 1 mM (Figure 8)", "result": "stimulate protein kinase activity toward MBP several-fold"}, {"measurement": "shift (lowering) of Km for aIF2α by oxidized CoA", "setting": "rSsoPK4(284–635) [1]; from ~48 µM in absence to ~6 µM in presence of oxidized CoA", "result": "~ 8 fold"}, {"measurement": "sensitivity of activity to oxidized CoA", "setting": "[2]", "result": "no longer sensitive"}, {"measurement": "sensitivity of activity to oxidized CoA", "setting": "[3]", "result": "no longer sensitive"}]}
{"molecule": "Nc1ncnc2c1ncn2[C@@H]1O[C@H](COP(=O)(O)O)[C@@H](O)[C@H]1O", "note": "[5'AMP, adenosine 5'-monophosphate]", "values": [{"measurement": "IC50", "setting": "rSsoPK4(284–635) [4]", "result": 920, "unit": "µM"}]}
{"molecule": "Nc1ncnc2c1ncn2[C@@H]1O[C@H](CO)[C@@H](OP(=O)(O)O)[C@H]1O", "note": "[3ʹ-AMP, adenosine 3'-monophosphate]", "values": [{"measurement": "IC50", "setting": "rSsoPK4(284–635) [4]", "result": 2100, "unit": "µM"}]}
{"molecule": "Nc1ncnc2c1ncn2[C@@H]1O[C@H](COP(=O)(O)OP(=O)(O)O)[C@@H](O)[C@H]1O", "note": "[ADP, adenosine 5'-diphosphate]", "values": [{"measurement": "IC50", "setting": "rSsoPK4(284–635) [4]", "result": 190, "unit": "µM"}]}
{"molecule": "B1", "values": [{"measurement": "Km", "setting": "[5]", "result": 100, "unit": "µM"}]}
